As a reminder, the IC50 is the concentration needed to halve the response being measured. A higher IC50 goes with weaker potency.

The experiment relates to KB. Briefly: Cytotoxicity against human KB cells after 48 hrs by MTT assay. Type of experiment: functional, cell-based.
Turning to `C/C1=C\[C@@H](C)C/C=C/[C@H]2[C@@H]3O[C@]3(C)[C@@H](C)[C@H]3[C@H](Cc4c[nH]c5ccccc45)NC(=O)[C@]32C(=O)CCC(=O)C1=O` [CHAETOGLOBOSIN C], the IC50 turned out to be 34 µM.
Regarding `CC1=C(C)[C@H]2[C@H](Cc3c[nH]c4ccccc34)NC(=O)[C@]23C(=O)CC[C@H](O)C(=O)/C(C)=C/[C@@H](C)C/C=C/[C@H]3[C@@H]1O` [CHAETOGLOBOSIN E], 40 µM corresponded to half-maximal inhibition (IC50).
In turn, `C/C1=C\[C@@H](C)C/C=C/[C@H]2[C@@H]3O[C@]3(C)[C@@H](C)[C@H]3[C@H](Cc4c[nH]c5ccccc45)NC(=O)[C@]32C(=O)CC[C@H](O)C1=O` [CHAETOGLOBOSIN F] yielded a half-inhibitory concentration (IC50) of 52 µM.
As for `CC1=C(O)C(=O)[C@@H]2CC(=O)[C@@]34C(=O)N[C@@H](Cc5c[nH]c6ccccc56)[C@@H]3[C@H](C)[C@@]3(C)O[C@H]3[C@@H]4/C=C/C[C@H](C)[C@@H]12` [CHAETOGLOBOSIN U], the IC50 amounted to 16 µM.
In turn, `C/C1=C\[C@@H](C)C/C=C/[C@H]2[C@@H]3O[C@]3(C)[C@@H](C)[C@H]3[C@H](Cc4c[nH]c5ccccc45)NC(=O)[C@]32c2ccc([nH]2)C(=O)C1=O` [PENOCHALASIN A] returned an IC50 of 48 µM.

The record behind these values is ChEMBL document CHEMBL1157265, “Chaetoglobosin U, a cytochalasan alkaloid from endophytic Chaetomium globosum IFB-E019” (J Nat Prod, 2006).
